The nature of series [1]: Drug level in SRH rat plasma a 1 mg/kg , po measured after 4 hrs. Type of series: ADME, organism-based.
Series [2] can be described thus: Drug level in SRH rat plasma at 3 mg/kg , po measured after 4 hrs. Type of series: ADME, organism-based.
A short description of series [3]: Drug level in SRH rat plasma at 0.3 mg/kg , po measured after 4 hrs. Type of series: ADME, organism-based.
A short description of series [4]: Oral bioavailability in monkey at 2 mg/kg, po. The format is ADME, organism-based, Macaca mulatta. The note with it: rhesus monkey, in vivo.
A short description of series [5]: Half life in monkey at 0.5 mg/kg, iv and 2 mg/kg, po. Type of series: ADME, organism-based, Macaca mulatta. Conditions: rhesus monkey, in vivo.
The nature of series [6]: Clearance in monkey at 0.5 mg/kg, iv and 2 mg/kg, po. The format is ADME, organism-based, Macaca mulatta. Conditions: rhesus monkey, in vivo.
Series [7] is described as follows: Oral bioavailability in dog at 10 mg/kg. Type of series: ADME, organism-based, Canis lupus familiaris. Conditions: in vivo.
The nature of series [8]: Half life in dog at 1 mg/kg, iv and 10 mg/kg, po. The note with it: in vivo. The format is ADME, organism-based, Canis lupus familiaris.
Series [9] is described as follows: Clearance in dog at 1 mg/kg, iv and 10 mg/kg, po. The format is ADME, organism-based, Canis lupus familiaris. Conditions: in vivo.
Series [10] can be described thus: Half life in rat at 2 mg/kg, po. Type of series: ADME, organism-based. The note with it: in vivo.
A short description of series [11]: Clearance in rat at 1 mg/kg, iv and 2 mg/kg, po. The format is ADME, organism-based. Conditions: in vivo.
Series [12] in a line: Oral bioavailability in rat at 2 mg/kg. Type of series: ADME, organism-based. Conditions: in vivo.
Series [13] can be described thus: Total Plasma clearance in Sprauge-Dawley rat. Type of series: ADME. The note with it: Sprague-Dawley.
Series [14] in a line: AUCt/dose in Sprauge-Dawley rat. The format is ADME. Conditions: in vivo.
The nature of series [15]: Half life in Sprauge-Dawley rat. Type of series: ADME. Conditions: Sprague-Dawley, in vivo.
A short description of series [16]: Oral bioavailability in Sprauge-Dawley rat. The format is ADME, organism-based. Conditions: Sprague-Dawley, in vivo.
Series [17] is described as follows: Half life in rat at 1 mg/kg, iv and 2 mg/kg, po. The format is ADME, organism-based. Conditions: in vivo.

In general, bioavailability refers to the share of a dose that reaches the circulation, judged against a reference dose that is usually intravenous. One may read the half-life as the time in which the quantity being followed falls by half. As for `CC1(C)C(=O)Nc2nc(-n3nc(CCC(F)(F)F)c4cc(Cl)ccc43)nc(N)c21`, the concentration at 4 h in series [1] was found to be 145 nM; in series [2] it was 392 nM; in series [3], 36 nM. The bioavailability in series [4] is 63%; in series [7], 21%; in series [12] it was 80%. For the same compound, the results for the half-life in series [5], in series [8] and in series [10] were 1.4 h, 1.3 h and 2.6 h, respectively. Further, the clearance in series [6] turned out to be 34 mL/min/kg; in [9], 39 mL/min/kg; in [11], 29 mL/min/kg.

Compound `COC(=O)N(C)c1c(N)nc(-n2nc(Cc3c(F)ccc(F)c3F)c3cc(Cl)ccc32)nc1N` showed a clearance in [13] of 0.9 mL/min/kg. Also, in [14], the AUCt/dose amounted to 18 µM·kg·h/mg. In [15], this compound gave a half-life of 3.6 h. For the same compound, the bioavailability in series [16] was determined as 51%.

As to `COC(=O)N(C)c1c(N)nc(-n2nc(Cc3ccccc3F)c3cc(F)ccc32)nc1N`, the clearance in [13] amounted to 1.4 mL/min/kg. The compound further showed an AUCt/dose in [14] of 4.6 µM·kg·h/mg. Moreover, the half-life in [15] was 1.5 h. In [16], the bioavailability came out at 22%.

`COC(=O)Nc1c(N)nc(-n2nc(Cc3c(F)ccc(F)c3F)c3cc(Cl)ccc32)nc1N` displayed an AUCt/dose in [14] of 25.2 µM·kg·h/mg. Moreover, the bioavailability in series [16] came to 37%.

`COC(=O)N(C)c1c(N)nc(-n2nc(Cc3c(F)ccc(F)c3F)c3ccccc32)nc1N`: the clearance in [13] is 1.6 mL/min/kg. In [14], this compound gave an AUCt/dose of 15.3 µM·kg·h/mg. For the same compound, the half-life in [15] is 2.2 h. The same compound yielded a bioavailability in [16] of 68%.

`COC(=O)N(C)c1c(N)nc(-n2nc(Cc3ccccc3F)c3ccccc32)nc1N` showed a bioavailability in series [12] of 32%. For the same compound, in [17], the half-life is 0.9 h.

Consider `COC(=O)N(C)c1c(N)nc(-c2nc(Cc3ccccc3F)n3ncccc23)nc1N`, for which the bioavailability in [12] came to 4%. Also, in [17], the half-life is 0.6 h.

Take `COC(=O)N(C)c1c(N)nc(-c2nc(Cc3ccccc3F)n3ccccc23)nc1N`: in [12], the bioavailability is 15%. Moreover, the half-life in [17] was 0.9 h.

Values taken from ChEMBL document CHEMBL4665837, “Soluble guanylate cyclase stimulators for the treatment of hypertension: Discovery of MK-2947” (Bioorg Med Chem Lett, 2020).
